{"source": "the NIST ThermoML archive (doi:10.1021/je100095p)", "key": {"[1]": {"details": "298.15 K; 101.33 kPa; Liquid; Vibrating tube method"}, "[2]": {"experiment": "refractive index (Na D-line) (dimensionless)", "details": "298.15 K; 101.33 kPa; Liquid; Standard Abbe refractometry"}, "[3]": {"experiment": "excess molar enthalpy (molar enthalpy of mixing); xn = mol fraction of the nth substance listed", "details": "298.15 K, 101 kPa, Liquid, Calvet calorimetry"}}, "note": "Numbers after ± are expanded uncertainties.", "data": [{"smiles": "OCc1ccccc1", "note": "[benzenemethanol]", "values": [{"measurement": "mass density", "setting": "[1]", "result": "1041.99 ± 0.26", "unit": "kg/m3"}, {"measurement": "refractive index", "setting": "[2]", "result": "1.5381 ± 0.0005"}]}, {"smiles": "OCc1ccccc1", "note": "[benzenemethanol] + CCCCCCO", "values": [{"measurement": "excess molar enthalpy", "setting": "[3]; x1 = 0.0954", "result": "0.025 ± 0.000621", "unit": "kcal/mol"}, {"measurement": "excess molar enthalpy", "setting": "[3]; x1 = 0.1959", "result": "0.0473 ± 0.00108", "unit": "kcal/mol"}, {"measurement": "excess molar enthalpy", "setting": "[3]; x1 = 0.291", "result": "0.0647 ± 0.00143", "unit": "kcal/mol"}, {"measurement": "excess molar enthalpy", "setting": "[3]; x1 = 0.3901", "result": "0.0775 ± 0.0017", "unit": "kcal/mol"}, {"measurement": "excess molar enthalpy", "setting": "[3]; x1 = 0.5072", "result": "0.0822 ± 0.00182", "unit": "kcal/mol"}, {"measurement": "excess molar enthalpy", "setting": "[3]; x1 = 0.598", "result": "0.0818 ± 0.00179", "unit": "kcal/mol"}, {"measurement": "excess molar enthalpy", "setting": "[3]; x1 = 0.6996", "result": "0.074 ± 0.00163", "unit": "kcal/mol"}, {"measurement": "excess molar enthalpy", "setting": "[3]; x1 = 0.8022", "result": "0.0576 ± 0.00129", "unit": "kcal/mol"}, {"measurement": "excess molar enthalpy", "setting": "[3]; x1 = 0.8986", "result": "0.0348 ± 0.000813", "unit": "kcal/mol"}]}, {"smiles": "OCc1ccccc1", "note": "[benzenemethanol] + CCCCCO", "values": [{"measurement": "excess molar enthalpy", "setting": "[3]; x1 = 0.1044", "result": "0.0229 ± 0.000574", "unit": "kcal/mol"}, {"measurement": "excess molar enthalpy", "setting": "[3]; x1 = 0.1968", "result": "0.0403 ± 0.000932", "unit": "kcal/mol"}, {"measurement": "excess molar enthalpy", "setting": "[3]; x1 = 0.2902", "result": "0.054 ± 0.00122", "unit": "kcal/mol"}, {"measurement": "excess molar enthalpy", "setting": "[3]; x1 = 0.3864", "result": "0.0635 ± 0.00141", "unit": "kcal/mol"}, {"measurement": "excess molar enthalpy", "setting": "[3]; x1 = 0.4838", "result": "0.0681 ± 0.00151", "unit": "kcal/mol"}, {"measurement": "excess molar enthalpy", "setting": "[3]; x1 = 0.5999", "result": "0.0648 ± 0.00143", "unit": "kcal/mol"}, {"measurement": "excess molar enthalpy", "setting": "[3]; x1 = 0.6988", "result": "0.0576 ± 0.00129", "unit": "kcal/mol"}, {"measurement": "excess molar enthalpy", "setting": "[3]; x1 = 0.7995", "result": "0.0444 ± 0.001", "unit": "kcal/mol"}, {"measurement": "excess molar enthalpy", "setting": "[3]; x1 = 0.8992", "result": "0.0253 ± 0.000621", "unit": "kcal/mol"}]}, {"smiles": "OCc1ccccc1", "note": "[benzenemethanol] + CCCCO", "values": [{"measurement": "excess molar enthalpy", "setting": "[3]; x1 = 0.0976", "result": "0.0203 ± 0.000526", "unit": "kcal/mol"}, {"measurement": "excess molar enthalpy", "setting": "[3]; x1 = 0.1973", "result": "0.0356 ± 0.000837", "unit": "kcal/mol"}, {"measurement": "excess molar enthalpy", "setting": "[3]; x1 = 0.295", "result": "0.0469 ± 0.00105", "unit": "kcal/mol"}, {"measurement": "excess molar enthalpy", "setting": "[3]; x1 = 0.396", "result": "0.0528 ± 0.0012", "unit": "kcal/mol"}, {"measurement": "excess molar enthalpy", "setting": "[3]; x1 = 0.4931", "result": "0.0552 ± 0.00124", "unit": "kcal/mol"}, {"measurement": "excess molar enthalpy", "setting": "[3]; x1 = 0.6029", "result": "0.0507 ± 0.00115", "unit": "kcal/mol"}, {"measurement": "excess molar enthalpy", "setting": "[3]; x1 = 0.7039", "result": "0.0428 ± 0.00098", "unit": "kcal/mol"}, {"measurement": "excess molar enthalpy", "setting": "[3]; x1 = 0.8026", "result": "0.0317 ± 0.000741", "unit": "kcal/mol"}, {"measurement": "excess molar enthalpy", "setting": "[3]; x1 = 0.9017", "result": "0.0174 ± 0.000454", "unit": "kcal/mol"}]}, {"smiles": "OCc1ccccc1", "note": "[benzenemethanol] + CCCO", "values": [{"measurement": "excess molar enthalpy", "setting": "[3]; x1 = 0.0984", "result": "0.0116 ± 0.000335", "unit": "kcal/mol"}, {"measurement": "excess molar enthalpy", "setting": "[3]; x1 = 0.1964", "result": "0.0202 ± 0.000502", "unit": "kcal/mol"}, {"measurement": "excess molar enthalpy", "setting": "[3]; x1 = 0.2873", "result": "0.0255 ± 0.000621", "unit": "kcal/mol"}, {"measurement": "excess molar enthalpy", "setting": "[3]; x1 = 0.3999", "result": "0.0295 ± 0.000693", "unit": "kcal/mol"}, {"measurement": "excess molar enthalpy", "setting": "[3]; x1 = 0.4987", "result": "0.0284 ± 0.000669", "unit": "kcal/mol"}, {"measurement": "excess molar enthalpy", "setting": "[3]; x1 = 0.5993", "result": "0.0256 ± 0.000621", "unit": "kcal/mol"}, {"measurement": "excess molar enthalpy", "setting": "[3]; x1 = 0.6983", "result": "0.0207 ± 0.000526", "unit": "kcal/mol"}, {"measurement": "excess molar enthalpy", "setting": "[3]; x1 = 0.7996", "result": "0.0147 ± 0.000406", "unit": "kcal/mol"}, {"measurement": "excess molar enthalpy", "setting": "[3]; x1 = 0.8988", "result": "0.00772 ± 0.000263", "unit": "kcal/mol"}]}, {"smiles": "OCc1ccccc1", "note": "[benzenemethanol] + CCO", "values": [{"measurement": "excess molar enthalpy", "setting": "[3]; x1 = 0.0746", "result": "0.0175 ± 0.000454", "unit": "kcal/mol"}, {"measurement": "excess molar enthalpy", "setting": "[3]; x1 = 0.1514", "result": "0.0312 ± 0.000741", "unit": "kcal/mol"}, {"measurement": "excess molar enthalpy", "setting": "[3]; x1 = 0.2275", "result": "0.041 ± 0.000932", "unit": "kcal/mol"}, {"measurement": "excess molar enthalpy", "setting": "[3]; x1 = 0.3029", "result": "0.0474 ± 0.00108", "unit": "kcal/mol"}, {"measurement": "excess molar enthalpy", "setting": "[3]; x1 = 0.3785", "result": "0.0512 ± 0.00115", "unit": "kcal/mol"}, {"measurement": "excess molar enthalpy", "setting": "[3]; x1 = 0.4855", "result": "0.0533 ± 0.0012", "unit": "kcal/mol"}, {"measurement": "excess molar enthalpy", "setting": "[3]; x1 = 0.5857", "result": "0.0497 ± 0.00112", "unit": "kcal/mol"}, {"measurement": "excess molar enthalpy", "setting": "[3]; x1 = 0.6883", "result": "0.0422 ± 0.000956", "unit": "kcal/mol"}, {"measurement": "excess molar enthalpy", "setting": "[3]; x1 = 0.7915", "result": "0.0309 ± 0.000741", "unit": "kcal/mol"}, {"measurement": "excess molar enthalpy", "setting": "[3]; x1 = 0.8949", "result": "0.0171 ± 0.000454", "unit": "kcal/mol"}]}, {"smiles": "OCc1ccccc1", "note": "[benzenemethanol] + CO", "values": [{"measurement": "excess molar enthalpy", "setting": "[3]; x1 = 0.07", "result": "-0.00363 ± 0.000215", "unit": "kcal/mol"}, {"measurement": "excess molar enthalpy", "setting": "[3]; x1 = 0.1388", "result": "-0.00798 ± 0.000287", "unit": "kcal/mol"}, {"measurement": "excess molar enthalpy", "setting": "[3]; x1 = 0.2057", "result": "-0.0136 ± 0.000382", "unit": "kcal/mol"}, {"measurement": "excess molar enthalpy", "setting": "[3]; x1 = 0.2728", "result": "-0.0189 ± 0.000478", "unit": "kcal/mol"}, {"measurement": "excess molar enthalpy", "setting": "[3]; x1 = 0.3404", "result": "-0.024 ± 0.000598", "unit": "kcal/mol"}, {"measurement": "excess molar enthalpy", "setting": "[3]; x1 = 0.3992", "result": "-0.0286 ± 0.000693", "unit": "kcal/mol"}, {"measurement": "excess molar enthalpy", "setting": "[3]; x1 = 0.4995", "result": "-0.0337 ± 0.000789", "unit": "kcal/mol"}, {"measurement": "excess molar enthalpy", "setting": "[3]; x1 = 0.5964", "result": "-0.0345 ± 0.000813", "unit": "kcal/mol"}, {"measurement": "excess molar enthalpy", "setting": "[3]; x1 = 0.6972", "result": "-0.0325 ± 0.000765", "unit": "kcal/mol"}, {"measurement": "excess molar enthalpy", "setting": "[3]; x1 = 0.7998", "result": "-0.0258 ± 0.000621", "unit": "kcal/mol"}, {"measurement": "excess molar enthalpy", "setting": "[3]; x1 = 0.9028", "result": "-0.0147 ± 0.000406", "unit": "kcal/mol"}]}, {"smiles": "CCCCO", "note": "[butan-1-ol]", "values": [{"measurement": "mass density", "setting": "[1]", "result": "805.75 ± 0.12", "unit": "kg/m3"}, {"measurement": "refractive index", "setting": "[2]", "result": "1.3974 ± 0.0005"}]}, {"smiles": "CCO", "note": "[ethanol]", "values": [{"measurement": "mass density", "setting": "[1]", "result": "785.15 ± 0.12", "unit": "kg/m3"}, {"measurement": "refractive index", "setting": "[2]", "result": "1.3595 ± 0.0005"}]}, {"smiles": "CCCCCCO", "note": "[hexan-1-ol]", "values": [{"measurement": "mass density", "setting": "[1]", "result": "815.2 ± 0.64", "unit": "kg/m3"}, {"measurement": "refractive index", "setting": "[2]", "result": "1.4165 ± 0.0006"}]}, {"smiles": "CO", "note": "[methanol]", "values": [{"measurement": "mass density", "setting": "[1]", "result": "786.5 ± 0.15", "unit": "kg/m3"}, {"measurement": "refractive index", "setting": "[2]", "result": "1.3266 ± 0.0005"}]}, {"smiles": "CCCCCO", "note": "[pentan-1-ol]", "values": [{"measurement": "mass density", "setting": "[1]", "result": "810.88 ± 0.24", "unit": "kg/m3"}, {"measurement": "refractive index", "setting": "[2]", "result": "1.4088 ± 0.0005"}]}, {"smiles": "CCCO", "note": "[propan-1-ol]", "values": [{"measurement": "mass density", "setting": "[1]", "result": "799.51 ± 0.12", "unit": "kg/m3"}, {"measurement": "refractive index", "setting": "[2]", "result": "1.3833 ± 0.0005"}]}]}
